According to publication PMC7224224, “Synthesis of diindolylmethane (DIM) bearing thiadiazole derivatives as a potent urease inhibitor” (Scientific Reports, 2020):

Columns and labels:
[1] = molecular target: jack bean urease (Canavalia ensiformis, UniProt P07374); assay: biochemical
Description: Urease is an enzyme (jack bean urease) that catalyzes the hydrolysis of urea into carbon dioxide and ammonia. The production of ammonia was measured by the indophenol method and used to determine the urease inhibitory activity[57],[58]. The percentage remaining activity was calculated from the formula % Remaining Activity = [(ODtest)/(ODcontrol) × 100]. Thiourea was used as a standard inhibitor. To calculate IC50 values, different concentrations of synthesized compounds and standards were assayed at the same reaction conditions.

jack bean urease, sequence (P07374 whole entry, looked up): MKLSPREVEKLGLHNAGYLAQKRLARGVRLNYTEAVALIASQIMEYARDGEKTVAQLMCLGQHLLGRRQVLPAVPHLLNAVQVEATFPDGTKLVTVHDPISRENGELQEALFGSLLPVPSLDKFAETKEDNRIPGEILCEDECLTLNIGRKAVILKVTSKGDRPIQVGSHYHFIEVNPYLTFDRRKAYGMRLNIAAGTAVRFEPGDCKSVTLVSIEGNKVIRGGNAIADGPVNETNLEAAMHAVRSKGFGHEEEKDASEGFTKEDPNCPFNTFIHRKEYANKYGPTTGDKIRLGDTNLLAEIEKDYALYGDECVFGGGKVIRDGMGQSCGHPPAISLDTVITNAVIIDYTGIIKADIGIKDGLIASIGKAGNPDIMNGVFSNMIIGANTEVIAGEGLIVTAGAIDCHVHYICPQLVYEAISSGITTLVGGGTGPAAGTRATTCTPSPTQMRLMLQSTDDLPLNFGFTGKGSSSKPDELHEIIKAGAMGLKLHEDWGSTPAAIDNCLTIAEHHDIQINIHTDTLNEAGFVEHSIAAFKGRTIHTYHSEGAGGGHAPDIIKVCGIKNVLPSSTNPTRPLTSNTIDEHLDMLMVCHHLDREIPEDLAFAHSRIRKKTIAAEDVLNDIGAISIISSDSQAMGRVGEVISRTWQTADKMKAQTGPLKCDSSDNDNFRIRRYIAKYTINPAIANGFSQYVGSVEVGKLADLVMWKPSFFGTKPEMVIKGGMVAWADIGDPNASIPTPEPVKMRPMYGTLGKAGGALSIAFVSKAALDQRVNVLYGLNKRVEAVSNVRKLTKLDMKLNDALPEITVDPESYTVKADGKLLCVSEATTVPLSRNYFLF

SMILES	melting point	IC50 [1]
Cc1ccc(Cl)c(S(=O)(=O)Nc2nnc(-c3ccc(C(c4c[nH]c5ccc(Br)cc45)c4c[nH]c5ccc(Br)cc45)cc3)s2)c1 [Compound 12, N-(5-(4-(bis(5-bromo-1H-indol-3-yl)methyl)phenyl)-1,3,4-thiadiazol-2-yl)-2-chloro-5-methylbenzenesulfonamide]	301 to 302 °C	8.5 ± 0.3 µM
O=S(=O)(Nc1nnc(-c2ccc(C(c3c[nH]c4ccc(Br)cc34)c3c[nH]c4ccc(Br)cc34)cc2)s1)c1ccc(Cl)c(Cl)c1 [Compound 10, N-(5-(4-(bis(5-bromo-1H-indol-3-yl)methyl)phenyl)-1,3,4-thiadiazol-2-yl)-3,4-dichlorobenzenesulfonamide]	302 to 303 °C	1.6 ± 0.01 µM
COc1ccc(Br)c(S(=O)(=O)Nc2nnc(-c3ccc(C(c4c[nH]c5ccc(Br)cc45)c4c[nH]c5ccc(Br)cc45)cc3)s2)c1 [Compound 14, N-(5-(4-(bis(5-bromo-1H-indol-3-yl)methyl)phenyl)-1,3,4-thiadiazol-2-yl)-2-bromo-5-methoxybenzenesulfonamide]	309 to 310 °C	19.8 ± 0.8 µM
O=S(=O)(Nc1nnc(-c2ccc(C(c3c[nH]c4ccc(Br)cc34)c3c[nH]c4ccc(Br)cc34)cc2)s1)c1cc(Cl)c(Cl)cc1Cl [Compound 6, N-(5-(4-(bis(5-bromo-1H-indol-3-yl)methyl)phenyl)-1,3,4-thiadiazol-2-yl)-2,4,5-trichlorobenzenesulfonamide]	299 to 300 °C	0.7 ± 0.01 µM
O=S(=O)(Nc1nnc(-c2ccc(C(c3c[nH]c4ccc(Br)cc34)c3c[nH]c4ccc(Br)cc34)cc2)s1)c1ccc2ccccc2c1 [Compound 11, N-(5-(4-(bis(5-bromo-1H-indol-3-yl)methyl)phenyl)-1,3,4-thiadiazol-2-yl)naphthalene-2-sulfonamide]	313 to 314 °C	33.2 ± 1.2 µM
Cc1cccc(S(=O)(=O)Nc2nnc(-c3ccc(C(c4c[nH]c5ccc(Br)cc45)c4c[nH]c5ccc(Br)cc45)cc3)s2)c1 [Compound 17, N-(5-(4-(bis(5-bromo-1H-indol-3-yl)methyl)phenyl)-1,3,4-thiadiazol-2-yl)-3-methylbenzenesulfonamide]	289 to 290 °C	28.6 ± 1.2 µM
O=S(=O)(Nc1nnc(-c2ccc(C(c3c[nH]c4ccc(Br)cc34)c3c[nH]c4ccc(Br)cc34)cc2)s1)c1ccccc1 [Compound 1, N-(5-(4-(bis(5-bromo-1H-indol-3-yl)methyl)phenyl)-1,3,4-thiadiazol-2-yl)benzenesulfonamide]	301 to 302 °C	13.2 ± 0.3 µM
O=[N+]([O-])c1ccc(S(=O)(=O)Nc2nnc(-c3ccc(C(c4c[nH]c5ccc(Br)cc45)c4c[nH]c5ccc(Br)cc45)cc3)s2)c([N+](=O)[O-])c1 [Compound 8, N-(5-(4-(bis(5-bromo-1H-indol-3-yl)methyl)phenyl)-1,3,4-thiadiazol-2-yl)-2,4-dinitrobenzenesulfonamide]		0.5 ± 0.01 µM
Cc1ccccc1S(=O)(=O)Nc1nnc(-c2ccc(C(c3c[nH]c4ccc(Br)cc34)c3c[nH]c4ccc(Br)cc34)cc2)s1 [Compound 16, N-(5-(4-(bis(5-bromo-1H-indol-3-yl)methyl)phenyl)-1,3,4-thiadiazol-2-yl)-2-methylbenzenesulfonamide]	291 to 292 °C	23.8 ± 1 µM
O=[N+]([O-])c1ccc(S(=O)(=O)Nc2nnc(-c3ccc(C(c4c[nH]c5ccc(Br)cc45)c4c[nH]c5ccc(Br)cc45)cc3)s2)cc1Cl [Compound 9, N-(5-(4-(bis(5-bromo-1H-indol-3-yl)methyl)phenyl)-1,3,4-thiadiazol-2-yl)-3-chloro-4-nitrobenzenesulfonamide]	318 to 319 °C	1.1 ± 0.01 µM
O=[N+]([O-])c1ccc(S(=O)(=O)Nc2nnc(-c3ccc(C(c4c[nH]c5ccc(Br)cc45)c4c[nH]c5ccc(Br)cc45)cc3)s2)cc1 [Compound 2, N-(5-(4-(bis(5-bromo-1H-indol-3-yl)methyl)phenyl)-1,3,4-thiadiazol-2-yl)-4-nitrobenzenesulfonamide]	312 to 313 °C	1.8 ± 0.01 µM
O=[N+]([O-])c1ccccc1S(=O)(=O)Nc1nnc(-c2ccc(C(c3c[nH]c4ccc(Br)cc34)c3c[nH]c4ccc(Br)cc34)cc2)s1 [Compound 3, N-(5-(4-(bis(5-bromo-1H-indol-3-yl)methyl)phenyl)-1,3,4-thiadiazol-2-yl)-2-nitrobenzenesulfonamide]	314 to 315 °C	1.1 ± 0.01 µM
COc1ccc([N+](=O)[O-])c(S(=O)(=O)Nc2nnc(-c3ccc(C(c4c[nH]c5ccc(Br)cc45)c4c[nH]c5ccc(Br)cc45)cc3)s2)c1 [Compound 15, N-(5-(4-(bis(5-bromo-1H-indol-3-yl)methyl)phenyl)-1,3,4-thiadiazol-2-yl)-5-methoxy-2-nitrobenzenesulfonamide]	308 to 309 °C	3.9 ± 0.1 µM
COc1ccc(Cl)cc1S(=O)(=O)Nc1nnc(-c2ccc(C(c3c[nH]c4ccc(Br)cc34)c3c[nH]c4ccc(Br)cc34)cc2)s1 [Compound 5, N-(5-(4-(bis(5-bromo-1H-indol-3-yl)methyl)phenyl)-1,3,4-thiadiazol-2-yl)-5-chloro-2-methoxybenzenesulfonamide]	315 to 316 °C	7.3 ± 0.1 µM
Cc1ccc(S(=O)(=O)Nc2nnc(-c3ccc(C(c4c[nH]c5ccc(Br)cc45)c4c[nH]c5ccc(Br)cc45)cc3)s2)cc1 [Compound 18, N-(5-(4-(bis(5-bromo-1H-indol-3-yl)methyl)phenyl)-1,3,4-thiadiazol-2-yl)-4-methylbenzenesulfonamide]	285 to 286 °C	20.4 ± 1.2 µM
Cc1ccc([N+](=O)[O-])c(S(=O)(=O)Nc2nnc(-c3ccc(C(c4c[nH]c5ccc(Br)cc45)c4c[nH]c5ccc(Br)cc45)cc3)s2)c1 [Compound 13, N-(5-(4-(bis(5-bromo-1H-indol-3-yl)methyl)phenyl)-1,3,4-thiadiazol-2-yl)-5 methyl-2-nitrobenzenesulfonamide]	312 to 313 °C	5.1 ± 0.1 µM
O=S(=O)(Nc1nnc(-c2ccc(C(c3c[nH]c4ccc(Br)cc34)c3c[nH]c4ccc(Br)cc34)cc2)s1)c1ccc(Cl)cc1Cl [Compound 7, N-(5-(4-(bis(5-bromo-1H-indol-3-yl)methyl)phenyl)-1,3,4-thiadiazol-2-yl)-2,4-dichlorobenzenesulfonamide]		2.3 ± 0.1 µM
COc1ccc(O)c(S(=O)(=O)Nc2nnc(-c3ccc(C(c4c[nH]c5ccc(Br)cc45)c4c[nH]c5ccc(Br)cc45)cc3)s2)c1 [Compound 4, N-(5-(4-(bis(5-bromo-1H-indol-3-yl)methyl)phenyl)-1,3,4-thiadiazol-2-yl)-2-hydroxy-5-methoxybenzenesulfonamide]		2.2 ± 0.1 µM
